Data as given in ChEMBL document CHEMBL1125526, “Penicillin derived C2-symmetric dimers as novel inhibitors of HIV-1 proteinase” (J Med Chem, 1992).

What follows are compounds tested against Human immunodeficiency virus type 1 protease (Human immunodeficiency virus 1, UniProt Q72874) (assay: Inhibitory activity towards HIV-1 protease).

SMILES | IC50 [nM]
COC(=O)[C@@H](NC(=O)Cc1ccccc1)[C@@H]1N[C@@H](C(=O)NNC(=O)[C@@H]2N[C@@H]([C@H](NC(=O)Cc3ccccc3)C(=O)OC)SC2(C)C)C(C)(C)S1 | 6800
CC1(C)S[C@H]([C@H](NC(=O)Cc2ccccc2)C(=O)NCc2ccccc2)N[C@H]1C(=O)NCCNC(=O)[C@@H]1N[C@@H]([C@H](NC(=O)Cc2ccccc2)C(=O)NCc2ccccc2)SC1(C)C | 0.9
COC(=O)[C@@H](NC(=O)Cc1ccccc1)[C@@H]1N[C@@H](C(=O)NCCNC(C)=O)C(C)(C)S1 | > 55000
COC(=O)[C@@H](NC(=O)Cc1ccccc1)[C@@H]1N[C@@H](C(=O)NCCCNC(=O)[C@@H]2N[C@@H]([C@H](NC(=O)Cc3ccccc3)C(=O)OC)SC2(C)C)C(C)(C)S1 | > 12000
COC(=O)[C@@H](NC(=O)Cc1ccccc1)[C@@H]1N[C@@H](C(=O)NCCNC(=O)[C@@H]2N3C(=O)C(NC(=O)Cc4ccccc4)[C@H]3SC2(C)C)C(C)(C)S1 (stereo partly specified) | 500
CCNC(=O)[C@@H](NC(=O)Cc1ccccc1)[C@@H]1N[C@@H](C(=O)OCCOC(=O)[C@@H]2N[C@@H]([C@H](NC(=O)Cc3ccccc3)C(=O)NCC)SC2(C)C)C(C)(C)S1 | > 12000
CC1(C)S[C@H]([C@H](NC(=O)Cc2ccccc2)C(N)=O)N[C@H]1C(=O)NCCNC(=O)[C@@H]1N[C@@H]([C@H](NC(=O)Cc2ccccc2)C(N)=O)SC1(C)C | 3
CCNC(=O)[C@@H](NC(=O)Cc1ccccc1)[C@@H]1N[C@@H](C(=O)NCCNC(=O)[C@@H]2N[C@@H]([C@H](NC(=O)Cc3ccccc3)C(=O)NCC)SC2(C)C)C(C)(C)S1 | 4.8
COC(=O)[C@@H](NC(=O)Cc1ccccc1)[C@@H]1N[C@@H](C(=O)NCCNC(=O)[C@@H]2N[C@@H]([C@H](NC(=O)Cc3ccccc3)C(=O)OC)SC2(C)C)C(C)(C)S1 | 60
CC1(C)S[C@@H]2[C@H](NC(=O)Cc3ccccc3)C(=O)N2[C@H]1C(=O)NCCNC(=O)[C@@H]1N2C(=O)[C@@H](NC(=O)Cc3ccccc3)[C@H]2SC1(C)C | > 70000
CCNC(=O)[C@@H]1N[C@@H]([C@H](NC(=O)Cc2ccccc2)C(=O)OC)SC1(C)C | > 63000
